The text below walks through data of article PMC9656436, “Synthesis and Biological Evaluation of New Isoxazolyl Steroids as Anti-Prostate Cancer Agents” (International Journal of Molecular Sciences, 2022).

Test [1] addresses T1, CYP17A1 (Homo sapiens, UniProt P05093).
T1 construct: recombinant human CYP17A1, reconstituted system; with NADPH-cytochrome P450 reductase (rat)
T1 sequence (P05093 1-508): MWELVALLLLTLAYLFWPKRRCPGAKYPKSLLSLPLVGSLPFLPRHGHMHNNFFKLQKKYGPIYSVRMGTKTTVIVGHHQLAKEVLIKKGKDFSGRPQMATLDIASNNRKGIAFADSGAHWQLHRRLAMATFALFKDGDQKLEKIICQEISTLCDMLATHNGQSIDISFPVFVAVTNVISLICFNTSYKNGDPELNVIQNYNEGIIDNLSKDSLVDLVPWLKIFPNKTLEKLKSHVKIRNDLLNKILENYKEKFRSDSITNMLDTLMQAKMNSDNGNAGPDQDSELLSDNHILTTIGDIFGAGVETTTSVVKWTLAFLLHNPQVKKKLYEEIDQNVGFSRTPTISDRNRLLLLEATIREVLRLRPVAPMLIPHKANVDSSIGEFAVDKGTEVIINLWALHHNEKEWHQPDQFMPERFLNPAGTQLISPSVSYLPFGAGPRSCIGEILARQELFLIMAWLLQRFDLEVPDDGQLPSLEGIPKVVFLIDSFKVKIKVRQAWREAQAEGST
T1 sequence (P00388 2-678 partner): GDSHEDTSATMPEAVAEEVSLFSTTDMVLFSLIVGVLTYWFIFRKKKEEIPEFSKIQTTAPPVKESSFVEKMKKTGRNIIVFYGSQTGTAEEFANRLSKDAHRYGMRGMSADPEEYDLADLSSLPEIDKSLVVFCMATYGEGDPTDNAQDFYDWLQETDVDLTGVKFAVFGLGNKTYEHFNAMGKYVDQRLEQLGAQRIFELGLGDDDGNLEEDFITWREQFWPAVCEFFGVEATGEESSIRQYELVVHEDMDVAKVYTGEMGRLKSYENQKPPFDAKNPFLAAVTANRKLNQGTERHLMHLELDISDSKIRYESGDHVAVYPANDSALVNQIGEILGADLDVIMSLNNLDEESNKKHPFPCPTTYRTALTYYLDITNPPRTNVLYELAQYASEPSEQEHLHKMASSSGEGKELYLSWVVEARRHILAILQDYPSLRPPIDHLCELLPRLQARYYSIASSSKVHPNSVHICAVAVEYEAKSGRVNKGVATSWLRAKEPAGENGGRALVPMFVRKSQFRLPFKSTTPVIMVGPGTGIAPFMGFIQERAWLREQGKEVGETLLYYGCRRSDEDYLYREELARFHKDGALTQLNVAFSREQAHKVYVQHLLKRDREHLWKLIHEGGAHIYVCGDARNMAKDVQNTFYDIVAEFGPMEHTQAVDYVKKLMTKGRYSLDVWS
Briefly: reconstituted […]α-hydroxylase assay, HPLC, […] compound. The class given is biochemical. To be noted: read-out: 17α-Hydroxylase Activity / Inhibition, %.

In test [2] the target is T2, CYP17A1 (Homo sapiens, UniProt P05093).
T2 construct: recombinant human CYP17A1, purified
T2 sequence (P05093 1-508): T1 sequence (P05093 1-508)
Briefly: UV-Vis spectrophotometric titration (type II spectral response). The class given is binding.

For the compound `CC(C)c1cc(C[C@H]2CC[C@H]3[C@@H]4CC=C5C[C@@H](O)CC[C@]5(C)[C@H]4CC[C@]23C)on1` [24b, (17R)-17-((3-isopropylisoxazol-5-yl)methyl)-androst-5-en-3β-ol], in test [1], the inhibition at 50 µM worked out at 45%.
The same measure, in the same setting: under `C[C@]12CC[C@H]3[C@@H](CC=C4C[C@@H](O)CC[C@@]43C)[C@@H]1CC[C@@H]2Cc1cc(C2CC2)no1` [24c, (17R)-17-((3-Cyclopropylisoxazol-5-yl)methyl)-androst-5-en-3β-ol] stands 45.7%.
For `C[C@]12CC[C@H](O)CC1=CC[C@@H]1[C@@H]2CC[C@]2(C)C(c3cccnc3)=CC[C@@H]12` [abiraterone], in test [2], the Kd (in general, the constant that tells how readily two partners part at equilibrium) was under 1000 nM.
